Test results: publication PMC4669759 (Cell Death & Disease, 2015)

Tests used:
RS4;11 cell line = experiment: Cell viability, RS4;11 cells; format: cell-based; conditions: RS4;11, 48 h
Experimental: (§1) Figure 4 Indole-2-carboxylic acids induce the hallmarks of apoptosis in MCL-1-dependent cancer cell line H929. (a) Digitonin-permeabilized H929 cells were treated with 10 μM BH3 peptides for 4 h, and intact H929 cells were incubated with increasing concentrations (0.1–10 μM) of A-1208746 for 4 h before assessing the levels of cytochrome c released into the cytosol. (b) H929 and RS4;11 cells were incubated with increasing concentrations of MCL-1 inhibitors or the BCL-2-selective inhibitor ABT-199 (venetoclax) for 48 h before determining cell viability. Cell killing IC50s are plotted with each value representing the mean of three separate experiments. Error bars represent the S.E.M. (c) H929 cells were incubated with increasing concentrations of MCL-1 inhibitors in the presence or absence of the pan-caspase inhibitor QVD (100 μM) for 4 h before assessing caspase-3/-7 activation, mitochondrial membrane polarization, and the exposure of phosphatidylserine. […]
(§2) Adherent cell lines were seeded at 50 000 cells per well in 96-well plates and treated for 48 h with compounds diluted in half-log steps starting at 30 μM and ending at 0.001 μM. […] Effects on proliferation and viability were determined using CellTiter-Glo reagent from Promega (Madison, WI, USA) according to the manufacturer's instructions. IC50 values were determined by non-linear regression analysis of the concentration response data.

H929 cells [1] = experiment: Hallmarks of apoptosis in H929 cells (caspase-3/-7, mitochondrial membrane depolarization, phosphatidylserine); format: cell-based, human; conditions: H929, 4 h
Experimental: as §1, with “experiments.” for “experiments. Error bars represent the S.E.M. (c) H929 cells were incubated with increasing concentrations of MCL-1 inhibitors in the presence or absence of the pan-caspase inhibitor QVD (100 μM) for 4 h before assessing caspase-3/-7 activation, mitochondrial membrane polarization, and the exposure of phosphatidylserine.”
(§3) H929 cells were cultured in RPMI 1640 (Invitrogen Corp., Grand Island, NY, USA) supplemented with 10% fetal bovine serum (Invitrogen), 1% sodium pyruvate, 25 mM HEPES, 4.5 g/l glucose, and 1% penicillin/streptomycin (Sigma) and maintained in a humidified chamber at 37 °C containing 5% CO2. […] Following treatment, the hallmarks of apoptosis (activation of caspase-3/-7, mitochondrial membrane depolarization, and phosphatidylserine externalization) were measured using the IntelliCyt (Albuquerque, NM, USA) MultiCyt 4-Plex Apoptosis Screening Kit according to the manufacturer's instructions and read by flow cytometry using a HTFC screening system (IntelliCyt). […] Data were expressed as the percentage of singlet cells. […]

Bak-/- Bax-/- MEFs = experiment: Cell viability, Bak-/- Bax-/- murine embryonic fibroblasts; format: cell-based; conditions: 48 h
Experimental: Supplementary Figure 4. […] Murine embryonic fibroblasts (MEFs) lacking Bak and Bax were treated with increasing concentrations of A-1155905, A-1208746, A-1210477, staurosporine or bortezomib for 48 h before assessing cell viability. Data represent the mean of triplicate experiments and error bars indicate the standard error of the mean.

H929 cells [2] = experiment: Cell viability, H929 cells; format: cell-based, human; conditions: H929, 48 h
Experimental: as §1, §2

H929 cells [3] = experiment: Cytochrome c release in H929 cells; format: cell-based, human; conditions: intact H929 cells, within 4 h
Experimental: as §1, with “experiments.” for “experiments. Error bars represent the S.E.M. (c) H929 cells were incubated with increasing concentrations of MCL-1 inhibitors in the presence or absence of the pan-caspase inhibitor QVD (100 μM) for 4 h before assessing caspase-3/-7 activation, mitochondrial membrane polarization, and the exposure of phosphatidylserine.”
as §3

BCL-XL–BAD complexes = target: T1, BCL-XL–BAD complexes (Homo sapiens, UniProt Q07817); experiment: Live cell redistribution assay, eGFP-BCL-XL and mCherry-BAD, T-REx-293 cells; format: cell-based; conditions: 10 μM, 300 min
T1 construct: expressed in transfected cells; host or cells: T-REx-293, bicistronic expression module integrated at a single genomic site
From the text: (§4) To further rule out potential artifacts associated with lysate detergents that can influence interactions between BCL-2 family proteins,[47] we employed a recently described real-time imaging method to assess the effects on BCL-2 family complexes in live cells.[48] Briefly, interacting pairs of BCL-2 family proteins are expressed as fluorescent fusion proteins at stoichiometric levels from a bicistronic expression module integrated into a single site of the genome in T-REx-293 cells. […]
(§5) Figure 3 A-1210477 inhibits MCL-1-BIM complexes in live cells. […] The decrease in amount of mCherry-BH3 protein localized to the mitochondria was quantified as a function of time as described in the Materials and Methods, normalized to DMSO control, and fitted to a single exponential decay. Each data point represents the mean change in intensity calculated from 10 fields of view, with error bars indicating the S.E.M. (b) T-REx-293 cells stably expressing eGFP-MCL-1(3B) and mCherry-BIMS(2A)ΔC were treated with 50 μM ABT-737 or increasing concentrations (1–25 μM) A-1210477 for 100 min. The decrease in amount of mCherry-BIMS(2A)ΔC localized to the mitochondria was quantified as in panel (a). (c) Representative fluorescence microscopic images of T-REx-293 cells stably expressing eGFP-BCL-2 family and interacting mCherry-BH3-only proteins before and after 300 min of treatment with 10 μM A-1210477 or (d) ABT-737. […]

[4] = tested on: MCL-1(3B)–BIMS(2A)ΔC complexes; experiment: Live cell redistribution assay, eGFP-MCL-1(3B) and mCherry-BIMS(2A)ΔC, T-REx-293 cells; format: cell-based; conditions: T-REx-293 cells expressing MCL-1(3B)
From the text: To further rule out potential artifacts associated with lysate detergents that can influence interactions between BCL-2 family proteins,[47] we employed a recently described real-time imaging method to assess the effects on BCL-2 family complexes in live cells.[48] Briefly, interacting pairs of BCL-2 family proteins are expressed as fluorescent fusion proteins at stoichiometric levels from a bicistronic expression module integrated into a single site of the genome in T-REx-293 cells. Under basal conditions, both proteins localize primarily to the mitochondria, where the anti-apoptotic proteins (enhanced green fluorescent protein (eGFP)-BCL-2, eGFP-BCL-XL, or eGFP-MCL-1(3B)) sequester their pro-apoptotic counterparts (mCherry-BAD or mCherry-BIMS(2A)ΔC, the latter being a specific binder of MCL-1[48], [49]). Disruption of these complexes can be tracked by measuring the amount of mCherry-labeled BH3-only protein localized specifically to the mitochondria. […]
as §5
Experiments were carried out as detailed previously.[48] […] Therefore, the entire cell was identified with a single intensity threshold applied to the eGFP fluorescence, excluding areas identified as mitochondria. […]

BCL-2–BAD complexes = target: T2, BCL-2–BAD complexes (Homo sapiens, UniProt P10415); experiment: Live cell redistribution assay, eGFP-BCL-2 and mCherry-BAD, T-REx-293 cells; format: cell-based; conditions: 10 μM, 300 min
T2 construct: expressed in transfected cells; host or cells: T-REx-293, bicistronic expression module integrated at a single genomic site
From the text: as §4, §5

H23 cells = experiment: Navitoclax / A-1210477 combination cell viability, H23 cells; format: cell-based, human; conditions: H23, up to 3–5 μM, 48 h
Experimental: (§6) Figure 6 A-1210477 synergizes with navitoclax to kill hematological and solid tumor cell lines. BxPC-3, EJ-1, H23, and OPM-2 cells were treated with increasing concentrations of navitoclax in the presence or absence of increasing concentrations of A-1210477 for 48 h before assessing cell viability. All data points represent the means of triplicate experiments, with error bars indicating the S.E.M. TEXT PRINTED IN THE PICTURE: A-1210477 + navitoclax: Bliss sum (BxPC-3): 716; Bliss sum (EJ-1): 464; Bliss sum (H23): 76; Bliss sum (OPM-2): 946 DOUBTS OF THE COPYIST ABOUT THIS PICTURE: The Bliss sums apply to the combination of A-1210477 and navitoclax. The picture prints the two names separately (legend heading and axis title), not as one joined label.
(§7) Adherent cell lines were seeded at 50 000 cells per well in 96-well plates and treated for 48 h with compounds diluted in half-log steps starting at 30 μM and ending at 0.001 μM. Multiple myeloma cell lines were seeded at 15 000–20 000 cells per well and treated similarly. Effects on proliferation and viability were determined using CellTiter-Glo reagent from Promega (Madison, WI, USA) according to the manufacturer's instructions. IC50 values were determined by non-linear regression analysis of the concentration response data.

OPM-2 cells = experiment: Navitoclax / A-1210477 combination cell viability, OPM-2 cells; format: cell-based; conditions: OPM-2, up to 3–5 μM, 48 h
Experimental: as §6, §7

BxPC-3 cells = experiment: Navitoclax / A-1210477 combination cell viability, BxPC-3 cells; format: cell-based; conditions: BxPC-3, up to 3–5 μM, 48 h
Experimental: as §6, §7

EJ-1 cells = experiment: Navitoclax / A-1210477 combination cell viability, EJ-1 cells; format: cell-based; conditions: EJ-1, up to 3–5 μM, 48 h
Experimental: as §6, §7

T2 sequence (P10415 whole entry, one chain of several): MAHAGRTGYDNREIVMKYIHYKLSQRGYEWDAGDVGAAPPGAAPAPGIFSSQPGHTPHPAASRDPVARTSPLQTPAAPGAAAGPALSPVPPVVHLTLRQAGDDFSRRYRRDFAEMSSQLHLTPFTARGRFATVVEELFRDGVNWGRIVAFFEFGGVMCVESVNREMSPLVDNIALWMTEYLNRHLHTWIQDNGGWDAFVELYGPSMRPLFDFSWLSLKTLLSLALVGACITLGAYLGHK
T1 sequence (Q07817 whole entry, one chain of several): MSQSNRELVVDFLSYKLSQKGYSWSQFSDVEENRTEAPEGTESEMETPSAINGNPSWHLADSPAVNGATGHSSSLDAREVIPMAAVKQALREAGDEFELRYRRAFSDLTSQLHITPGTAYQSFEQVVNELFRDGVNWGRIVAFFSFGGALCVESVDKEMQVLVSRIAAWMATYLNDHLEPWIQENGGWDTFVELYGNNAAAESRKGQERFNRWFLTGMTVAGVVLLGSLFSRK

Cc1nn(C)c(COc2ccc(N3CCN(S(C)(=O)=O)CC3)cc2)c1-c1cccc2c(CCCOc3cccc4ccccc34)c(C(=O)O)n(CCN3CCOCC3)c12 [A-1208746]
effect on cell viability (RS4;11 cell line): no effect | induction of hallmarks of apoptosis (mitochondrial membrane depolarization, caspase-3/-7 activation, phosphatidylserine externalization) (H929 cells [1]): induced the hallmarks of apoptosis | killing of Bak-/- Bax-/- MEFs (Bak-/- Bax-/- MEFs): do not Kill | cell killing IC50 (H929 cells [2]): low-μM range | lowest concentration at which cytochrome c was observed in cytosolic fractions (H929 cells [3]): 3 µM

CN(C)CC[C@H](CSc1ccccc1)Nc1ccc(S(=O)(=O)NC(=O)c2ccc(N3CCN(Cc4ccccc4-c4ccc(Cl)cc4)CC3)cc2)cc1[N+](=O)[O-] [ABT-737, reference compound]
redistribution of mCherry-BAD associated with BCL-XL (BCL-XL–BAD complexes): induced the redistribution of mCherry-BAD | redistribution of mCherry-BIMS(2A)ΔC from mitochondria [4]: no effect | redistribution of mCherry-BAD associated with BCL-2 (BCL-2–BAD complexes): induced the redistribution of mCherry-BAD

CC1(C)CCC(c2ccc(Cl)cc2)=C(CN2CCN(c3ccc(C(=O)NS(=O)(=O)c4ccc(N[C@H](CCN5CCOCC5)CSc5ccccc5)c(S(=O)(=O)C(F)(F)F)c4)cc3)CC2)C1 [navitoclax, reference compound]
single agent effect on cell viability (H23 cells): little or no effect | single agent effect on cell viability (OPM-2 cells): little or no effect | single agent effect on cell viability (BxPC-3 cells): little or no effect | single agent effect on cell viability (EJ-1 cells): little or no effect
